What was measured:
Experiment in all cases: EC50 assay: Ba/F3 stable cell proliferation (CCK-8, 72 h)
Format in all cases: cell-based
Ba/F3 stable cells [1] = molecular target: T1, Ba/F3 stable cells (Homo sapiens, UniProt P00533, DUP767-769, cells depend on it); conditions: Ba/F3-EGFR V769-D770insASV cells
T1 construct: EC50 Ba/F3-EGFR V769-D770insASV; other: Ba/F3-EGFR V769-D770insASV cells, 72 h, CCK-8
Method: (§1) 4,000 Ba/F3 stable cells/90 μL/well were plated onto 96-well cell culture plate (Grenier, Cat.No. 655180) and incubated at 37° C. with a humidified atmosphere of 5% CO2 for 2 h. Then the cells were treated with 10 μL compounds at serial titration. The final DMSO concentration is 0.1%. The cells treated with 0.1% DMSO (Vetec, Cat.No.V900090) as a positive control (Max), and medium with 0.1% DMSO was as a negative control (Min). Incubated the cells at 37° C. for 72 h. 10 μL the cell proliferation reagent CCK-8 (Dojindo, Cat.No. CK04 1000T) was added into each well and incubated the plate at 37° C. for 4 hours, the GD value was measured by SPECTRAmax plus (Molecular Devices) at 450 nm. Data processing with Graphpad 7.0.

Ba/F3 stable cells [2] = molecular target: T2, Ba/F3 stable cells (Homo sapiens, UniProt P00533, DUP768-770, cells depend on it); conditions: Ba/F3-EGFR D770-N771insSVD cells
T2 construct: EC50 Ba/F3-EGFR D770-N771insSVD; other: Ba/F3-EGFR D770-N771insSVD cells, 72 h, CCK-8
T2 sequence (P00533 with tags, fused parts or gaps DUP768-770): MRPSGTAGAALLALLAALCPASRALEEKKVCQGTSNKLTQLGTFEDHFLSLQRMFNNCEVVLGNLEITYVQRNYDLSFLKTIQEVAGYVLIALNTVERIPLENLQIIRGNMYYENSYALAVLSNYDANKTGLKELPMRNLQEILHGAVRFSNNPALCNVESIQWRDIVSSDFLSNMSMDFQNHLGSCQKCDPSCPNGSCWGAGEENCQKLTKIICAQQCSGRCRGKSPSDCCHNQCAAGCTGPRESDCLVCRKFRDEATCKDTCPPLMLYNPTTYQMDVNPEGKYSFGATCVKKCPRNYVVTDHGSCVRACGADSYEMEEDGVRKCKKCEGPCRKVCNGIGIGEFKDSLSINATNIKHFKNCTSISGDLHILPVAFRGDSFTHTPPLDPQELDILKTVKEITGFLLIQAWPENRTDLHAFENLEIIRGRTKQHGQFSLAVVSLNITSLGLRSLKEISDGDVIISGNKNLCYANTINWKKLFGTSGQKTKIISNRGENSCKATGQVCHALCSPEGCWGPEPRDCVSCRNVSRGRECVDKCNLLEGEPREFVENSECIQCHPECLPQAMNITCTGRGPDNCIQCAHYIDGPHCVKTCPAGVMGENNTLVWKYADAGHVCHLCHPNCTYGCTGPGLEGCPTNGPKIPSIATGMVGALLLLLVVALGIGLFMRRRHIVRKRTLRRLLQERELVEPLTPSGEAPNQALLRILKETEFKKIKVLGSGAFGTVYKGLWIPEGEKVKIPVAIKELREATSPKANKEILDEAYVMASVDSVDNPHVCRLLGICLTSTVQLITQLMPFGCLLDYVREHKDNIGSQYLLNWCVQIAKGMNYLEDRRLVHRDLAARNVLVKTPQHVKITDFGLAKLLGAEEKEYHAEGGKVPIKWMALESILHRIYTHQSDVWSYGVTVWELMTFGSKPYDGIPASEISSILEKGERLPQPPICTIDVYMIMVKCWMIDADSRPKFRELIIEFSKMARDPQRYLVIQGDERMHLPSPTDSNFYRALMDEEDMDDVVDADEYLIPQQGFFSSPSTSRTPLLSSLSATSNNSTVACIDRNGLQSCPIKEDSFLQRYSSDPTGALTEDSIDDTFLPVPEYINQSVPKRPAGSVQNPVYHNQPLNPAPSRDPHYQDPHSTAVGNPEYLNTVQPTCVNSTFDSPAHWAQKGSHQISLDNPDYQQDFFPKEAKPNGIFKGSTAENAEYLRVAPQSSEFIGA
Method: as §1

Ba/F3 stable cells [3] = molecular target: T3, Ba/F3 stable cells (Homo sapiens, UniProt P00533, DUP771-773, cells depend on it); conditions: Ba/F3-EGFR H773-V774insNPH cells
T3 construct: EC50 Ba/F3-EGFR H773-V774insNPH; other: Ba/F3-EGFR H773-V774insNPH cells, 72 h, CCK-8
Method: as §1

Ba/F3 stable cells [4] = molecular target: T4, Ba/F3 stable cells (Homo sapiens, UniProt P00533, INS763FQEA, cells depend on it); conditions: Ba/F3-EGFR A763-Y764insFQEA cells
T4 construct: EC50 Ba/F3-EGFR A763-Y764insFQEA; other: Ba/F3-EGFR A763-Y764insFQEA cells, 72 h, CCK-8
T4 sequence (P00533 with tags, fused parts or gaps INS763FQEA): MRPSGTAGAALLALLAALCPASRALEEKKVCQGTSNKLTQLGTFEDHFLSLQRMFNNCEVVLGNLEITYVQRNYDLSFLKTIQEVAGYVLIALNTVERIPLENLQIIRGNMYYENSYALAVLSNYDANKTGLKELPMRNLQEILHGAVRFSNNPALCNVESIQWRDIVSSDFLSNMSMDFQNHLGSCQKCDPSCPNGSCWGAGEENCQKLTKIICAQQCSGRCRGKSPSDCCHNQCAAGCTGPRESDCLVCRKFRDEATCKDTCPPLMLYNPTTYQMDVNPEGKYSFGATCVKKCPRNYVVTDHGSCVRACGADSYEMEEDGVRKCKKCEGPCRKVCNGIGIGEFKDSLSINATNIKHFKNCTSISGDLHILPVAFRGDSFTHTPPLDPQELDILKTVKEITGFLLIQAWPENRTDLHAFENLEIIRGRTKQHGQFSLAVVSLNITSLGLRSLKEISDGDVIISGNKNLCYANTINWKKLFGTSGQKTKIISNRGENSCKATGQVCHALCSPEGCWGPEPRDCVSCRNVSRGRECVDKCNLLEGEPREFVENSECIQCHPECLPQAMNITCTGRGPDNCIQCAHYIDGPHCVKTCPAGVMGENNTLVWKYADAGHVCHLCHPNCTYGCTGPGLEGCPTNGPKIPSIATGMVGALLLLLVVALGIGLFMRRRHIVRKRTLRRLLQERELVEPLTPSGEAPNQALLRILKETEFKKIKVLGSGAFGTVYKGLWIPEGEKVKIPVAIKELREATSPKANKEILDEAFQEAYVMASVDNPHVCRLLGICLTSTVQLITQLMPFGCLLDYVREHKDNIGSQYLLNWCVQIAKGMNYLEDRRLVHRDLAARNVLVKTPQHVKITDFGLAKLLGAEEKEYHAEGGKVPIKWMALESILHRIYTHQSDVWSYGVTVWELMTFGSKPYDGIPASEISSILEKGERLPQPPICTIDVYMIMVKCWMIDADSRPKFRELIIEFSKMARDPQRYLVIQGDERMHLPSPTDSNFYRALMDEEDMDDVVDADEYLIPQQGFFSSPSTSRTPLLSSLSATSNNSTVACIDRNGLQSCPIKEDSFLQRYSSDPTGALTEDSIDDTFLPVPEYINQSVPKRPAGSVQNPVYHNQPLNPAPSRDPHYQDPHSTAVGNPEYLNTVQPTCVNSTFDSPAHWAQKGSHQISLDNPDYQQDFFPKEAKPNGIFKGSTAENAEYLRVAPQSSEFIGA
Method: as §1

Ba/F3 stable cells [5] = molecular target: T5, Ba/F3 stable cells (Homo sapiens, UniProt P00533, T790M/L858R, cells depend on it); conditions: Ba/F3-EGFR L858R-T790M cells
T5 construct: EC50 Ba/F3-EGFR L858R-T790M; other: Ba/F3-EGFR L858R-T790M cells, 72 h, CCK-8
T5 sequence (P00533 whole entry T790M/L858R): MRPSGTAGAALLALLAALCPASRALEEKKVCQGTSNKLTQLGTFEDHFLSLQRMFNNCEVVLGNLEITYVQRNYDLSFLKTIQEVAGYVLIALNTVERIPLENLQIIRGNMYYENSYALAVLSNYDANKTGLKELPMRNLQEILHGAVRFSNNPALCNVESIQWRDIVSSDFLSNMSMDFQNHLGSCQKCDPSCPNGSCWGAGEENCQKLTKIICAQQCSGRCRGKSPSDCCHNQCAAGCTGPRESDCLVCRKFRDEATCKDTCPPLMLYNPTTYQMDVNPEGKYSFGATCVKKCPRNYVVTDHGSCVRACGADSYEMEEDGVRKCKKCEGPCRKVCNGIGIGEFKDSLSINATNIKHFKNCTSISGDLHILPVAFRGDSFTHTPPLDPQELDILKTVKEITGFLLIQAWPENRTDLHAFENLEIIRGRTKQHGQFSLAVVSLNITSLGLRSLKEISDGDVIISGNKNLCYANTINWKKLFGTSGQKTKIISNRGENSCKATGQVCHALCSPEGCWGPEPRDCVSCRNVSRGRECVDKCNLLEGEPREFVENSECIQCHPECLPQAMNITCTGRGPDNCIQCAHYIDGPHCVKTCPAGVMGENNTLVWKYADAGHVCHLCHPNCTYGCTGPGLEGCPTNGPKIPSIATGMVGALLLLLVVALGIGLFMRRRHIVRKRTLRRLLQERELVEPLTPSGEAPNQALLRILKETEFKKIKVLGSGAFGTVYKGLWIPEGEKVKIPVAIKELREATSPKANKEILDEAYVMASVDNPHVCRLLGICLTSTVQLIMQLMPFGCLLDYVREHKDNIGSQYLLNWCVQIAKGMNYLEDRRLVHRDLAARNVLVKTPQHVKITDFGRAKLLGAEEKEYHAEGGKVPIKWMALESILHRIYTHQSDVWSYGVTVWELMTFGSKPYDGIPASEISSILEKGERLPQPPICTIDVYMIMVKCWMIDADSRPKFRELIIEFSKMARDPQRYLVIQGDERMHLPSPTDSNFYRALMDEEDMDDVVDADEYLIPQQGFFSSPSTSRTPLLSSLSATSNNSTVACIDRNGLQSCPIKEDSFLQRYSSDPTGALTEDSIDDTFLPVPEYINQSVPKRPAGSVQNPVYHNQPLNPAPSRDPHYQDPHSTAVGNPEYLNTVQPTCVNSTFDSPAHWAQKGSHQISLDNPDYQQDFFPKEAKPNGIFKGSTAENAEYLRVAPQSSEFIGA
Method: as §1

Ba/F3 stable cells [6] = molecular target: T6, Ba/F3 stable cells (Homo sapiens, UniProt P04626, DUP772-775, cells depend on it); conditions: Ba/F3-HER2 A775-G776insYVMA cells
T6 construct: EC50 Ba/F3-HER2 A775-G776insYVMA; other: Ba/F3-HER2 A775-G776insYVMA cells, 72 h, CCK-8
T6 sequence (P04626 with tags, fused parts or gaps DUP772-775): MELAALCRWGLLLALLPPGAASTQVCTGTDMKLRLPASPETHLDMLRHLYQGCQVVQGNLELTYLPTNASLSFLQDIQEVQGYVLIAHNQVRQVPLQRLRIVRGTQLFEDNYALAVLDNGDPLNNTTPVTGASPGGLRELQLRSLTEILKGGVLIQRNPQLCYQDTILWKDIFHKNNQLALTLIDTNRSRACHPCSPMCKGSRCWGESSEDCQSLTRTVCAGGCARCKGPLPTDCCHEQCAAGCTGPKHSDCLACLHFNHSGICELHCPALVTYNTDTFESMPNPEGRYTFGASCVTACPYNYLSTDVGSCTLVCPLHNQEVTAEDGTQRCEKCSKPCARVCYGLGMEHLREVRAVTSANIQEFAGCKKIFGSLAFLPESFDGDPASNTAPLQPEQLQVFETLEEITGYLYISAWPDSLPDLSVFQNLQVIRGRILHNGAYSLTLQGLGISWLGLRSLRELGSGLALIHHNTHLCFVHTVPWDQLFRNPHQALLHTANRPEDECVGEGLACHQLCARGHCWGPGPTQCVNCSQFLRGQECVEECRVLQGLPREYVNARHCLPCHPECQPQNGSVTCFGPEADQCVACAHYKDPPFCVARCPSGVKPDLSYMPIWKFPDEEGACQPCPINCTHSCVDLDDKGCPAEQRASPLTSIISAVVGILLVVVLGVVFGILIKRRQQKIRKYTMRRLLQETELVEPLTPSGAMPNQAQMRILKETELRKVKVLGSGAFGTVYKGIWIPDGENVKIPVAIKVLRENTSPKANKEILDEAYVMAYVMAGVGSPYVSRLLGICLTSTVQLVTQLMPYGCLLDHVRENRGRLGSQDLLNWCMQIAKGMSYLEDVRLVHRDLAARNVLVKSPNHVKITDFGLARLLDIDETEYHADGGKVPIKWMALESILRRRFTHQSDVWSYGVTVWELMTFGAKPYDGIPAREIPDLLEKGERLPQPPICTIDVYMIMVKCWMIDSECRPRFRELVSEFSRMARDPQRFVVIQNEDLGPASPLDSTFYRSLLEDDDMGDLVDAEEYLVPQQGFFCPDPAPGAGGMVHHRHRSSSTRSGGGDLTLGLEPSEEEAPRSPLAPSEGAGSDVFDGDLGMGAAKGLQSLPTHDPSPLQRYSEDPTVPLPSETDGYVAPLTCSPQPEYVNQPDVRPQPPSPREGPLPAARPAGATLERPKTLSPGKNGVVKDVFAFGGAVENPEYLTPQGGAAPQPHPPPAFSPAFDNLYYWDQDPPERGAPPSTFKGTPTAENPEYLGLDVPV
Method: as §1

Row | Structure (SMILES) | EC50 (Ba/F3 stable cells [1]) [nM] | EC50 (Ba/F3 stable cells [2]) [nM] | EC50 (Ba/F3 stable cells [3]) [nM] | EC50 (Ba/F3 stable cells [4]) [nM] | EC50 (Ba/F3 stable cells [5]) [nM] | EC50 (Ba/F3 stable cells [6]) [nM]
1 | C=CC(=O)N1CC(c2cc3c(Nc4ccc(Cl)c(Cl)c4F)ncnc3cc2OCCN2CCN(C)CC2)C1 [Compound 21, 1-(3-(4-((3,4-dichloro-2-fluorophenyl)amino)-7-(2-(4-methylpiperazin-1-yl)ethoxy)quinazolin-6-yl)azetidin-1-yl)prop-2-en-1-one] | ≤ 200 | ≤ 200 | ≤ 200 | ≤ 200 | ≤ 200 | ≤ 200
2 | C=CC(=O)N1CC(c2cc3c(Nc4ccc(Cl)c(Cl)c4F)ncnc3cc2O[C@H]2CCOC2)C1 [Compound 22, (S)-1-(3-(4-((3,4-dichloro-2-fluorophenyl)amino)-7-((tetrahydrofuran-3-yl)oxy)quinazolin-6-yl)azetidin-1-yl)prop-2-en-1-one] | > 1000 | > 1000 | > 1000 | 200 to 1000 | > 1000 | > 1000
3 | C=CC(=O)N1CC(c2cc3c(Nc4ccc(Cl)c(Cl)c4F)ncnc3cc2OC(F)F)C1 [Compound 23, 1-(3-(4-((3,4-dichloro-2-fluorophenyl)amino)-7-(difluoromethoxy)quinazolin-6-yl)azetidin-1-yl)prop-2-en-1-one] | ≤ 200 | ≤ 200 | ≤ 200 | ≤ 200 | ≤ 200 | 200 to 1000
4 | C=CC(=O)N1CC(c2cc3c(Nc4ccc(Cl)c(Cl)c4F)ncnc3cc2OC2COC2)C1 [Compound 25, 1-(3-(4-((3,4-dichloro-2-fluorophenyl)amino)-7-(oxetan-3-yloxy)quinazolin-6-yl)azetidin-1-yl)prop-2-en-1-one] | ≤ 200 | ≤ 200 | ≤ 200 | ≤ 200 | ≤ 200 | ≤ 200
5 | C=CC(=O)N1CC(c2cc3c(Nc4ccc(Cl)c(Cl)c4F)ncnc3cc2OCCN(C)C)C1 [Compound 26, 1-(3-(4-((3,4-dichloro-2-fluorophenyl)amino)-7-(2-(dimethylamino)ethoxy)quinazolin-6-yl)azetidin-1-yl)prop-2-en-1-one] | ≤ 200 | 200 to 1000 | 200 to 1000 | ≤ 200 | 200 to 1000 | 200 to 1000
6 | C=CC(=O)N1CC(c2cc3c(Nc4ccc(Cl)c(Cl)c4F)ncnc3cc2OC2CCOCC2)C1 [Compound 27, 1-(3-(4-((3,4-dichloro-2-fluorophenyl)amino)-7-((tetrahydro-2H-pyran-4-yl)oxy)quinazolin-6-yl)azetidin-1-yl)prop-2-en-1-one] | ≤ 200 | 200 to 1000 | ≤ 200 | ≤ 200 | 200 to 1000 | > 1000
7 | C=CC(=O)N1CC(c2cc3c(Nc4ccc(Cl)c(Cl)c4F)ncnc3cc2OCCN2CCOCC2)C1 [Compound 28, 1-(3-(4-((3,4-dichloro-2-fluorophenyl)amino)-7-(2-morpholinoethoxy)quinazolin-6-yl)azetidin-1-yl)prop-2-en-1-one] | ≤ 200 | 200 to 1000 | ≤ 200 | ≤ 200 | 200 to 1000 | 200 to 1000
8 | C=CC(=O)N1CC(c2cc3c(Nc4ccc(Cl)c(Cl)c4F)ncnc3cc2O[C@@H]2CCOC2)C1 [Compound 29, (R)-1-(3-(4-((3,4-dichloro-2-fluorophenyl)amino)-7-((tetrahydrofuran-3-yl)oxy)quinazolin-6-yl)azetidin-1-yl)prop-2-en-1-one] | ≤ 200 | 200 to 1000 | ≤ 200 | ≤ 200 | ≤ 200 | 200 to 1000
9 | C=CC(=O)N1CC(c2cc3c(Nc4ccc(Cl)c(Cl)c4F)ncnc3cc2OCCCN2CCOCC2)C1 [Compound 30, 1-(3-(4-((3,4-dichloro-2-fluorophenyl)amino)-7-(3-morpholinopropoxy)quinazolin-6-yl)azetidin-1-yl)prop-2-en-1-one] | ≤ 200 | ≤ 200 | ≤ 200 | ≤ 200 | ≤ 200 | ≤ 200
10 | C=CC(=O)N1CC(c2cc3c(Nc4ccc(Cl)c(Cl)c4F)ncnc3cc2OCCCN2CCN(C)CC2)C1 [Compound 31, 1-(3-(4-((3,4-dichloro-2-fluorophenyl)amino)-7-(3-(4-methylpiperazin-1-yl)propoxy)quinazolin-6-yl)azetidin-1-yl)prop-2-en-1-one] | ≤ 200 | ≤ 200 | ≤ 200 | ≤ 200 | ≤ 200 | 200 to 1000
11 | [2H]C([2H])([2H])Oc1cc2ncnc(Nc3ccc(Cl)c(Cl)c3F)c2cc1C1CN(C(=O)C=C)C1 [Compound 32, 1-(3-(4-((3,4-dichloro-2-fluorophenyl)amino)-7-(methoxy-d3)quinazolin-6-yl)azetidin-1-yl)prop-2-en-1-one] | ≤ 200 | ≤ 200 | ≤ 200 | ≤ 200 | ≤ 200 | ≤ 200
12 | C=CC(=O)N1CC(c2cc3c(Nc4ccc(F)c(Cl)c4F)ncnc3cc2O[C@H]2CCOC2)C1 [Compound 33, (S)-1-(3-(4-((3-chloro-2,4-difluorophenyl)amino)-7-((tetrahydrofuran-3-yl)oxy)quinazolin-6-yl)azetidin-1-yl)prop-2-en-1-one] | ≤ 200 | ≤ 200 | ≤ 200 | ≤ 200 | ≤ 200 | ≤ 200
13 | C=CC(=O)NCC1COc2cc3ncnc(Nc4ccc(Cl)c(Cl)c4F)c3cc21 (stereo not drawn) [Compound 34, N-((4-((3,4-dichloro-2-fluorophenyl)amino)-6,7-dihydrofuro[3,2-g]quinazolin-6-yl)methyl)acrylamide] | 200 to 1000 | 200 to 1000 | ≤ 200 | ≤ 200 | > 1000 | ≤ 200
14 | [2H]C([2H])([2H])n1cn/c(=N\c2ccc(Cl)c(Cl)c2F)c2cc3c(cc21)OCC3CNC(=O)C=C (stereo not drawn) [Compound 35, (Z)—N-((4-((3,4-dichloro-2-fluorophenyl)imino)-1-trideuteriomethyl-1,4,6,7-tetrahydrofuro[3,2-g]quinazolin-6-yl)methyl)acrylamide] | > 1000 | > 1000 | > 1000 | > 1000 | > 1000 | > 1000
15 | C=C(F)C(=O)N1CC(c2cc3c(Nc4ccc(Cl)c(Cl)c4F)ncnc3cc2O[C@H]2CCOC2)C1 [Compound 37, (S)-1-(3-(4-((3,4-dichloro-2-fluorophenyl)amino)-7-((tetrahydrofuran-3-yl)oxy)quinazolin-6-yl)azetidin-1-yl)-2-fluoroprop-2-en-1-one] | ≤ 200 | 200 to 1000 | 200 to 1000 | ≤ 200 | 200 to 1000 | 200 to 1000
16 | C=C(F)C(=O)N1CC(c2cc3c(Nc4ccc(Cl)c(Cl)c4F)ncnc3cc2OC)C1 [Compound 38, 1-(3-(4-((3,4-dichloro-2-fluorophenyl)amino)-7-methoxyquinazolin-6-yl)azetidin-1-yl)-2-fluoroprop-2-en-1-one] | 200 to 1000 | > 1000 | 200 to 1000 | ≤ 200 | > 1000 | > 1000
17 | [2H]C([2H])([2H])Oc1cc2ncnc(Nc3ccc(Cl)c(Cl)c3F)c2cc1C1CN(C(=O)C(=C)F)C1 [Compound 39, 1-(3-(4-((3,4-dichloro-2-fluorophenyl)amino)-7-(methoxy-d3)quinazolin-6-yl)azetidin-1-yl)-2-fluoroprop-2-en-1-one] | 200 to 1000 | > 1000 | > 1000 | ≤ 200 | > 1000 | > 1000
18 | C=C(F)C(=O)N[C@H]1C[C@@H](Oc2cc3c(Nc4ccc(Cl)c(Cl)c4F)ncnc3cc2OC)C1 [Compound 40, N-((1s,3s)-3-((4-((3,4-dichloro-2-fluorophenyl)amino)-7-methoxyquinazolin-6-yl)oxy)cyclobutyl)-2-fluoroacrylamide] | ≤ 200 | 200 to 1000 | 200 to 1000 | ≤ 200 | 200 to 1000 | 200 to 1000

— US20250243171A1, “QUINAZOLINE COMPOUNDS FOR TREATMENT OF DISEASE” (Arthrosi Therapeutics, Inc., priority 2021, published 2025)
